From ChEMBL document CHEMBL4177762, “Combined Approach of Backbone Amide Linking and On-Resin N-Methylation for the Synthesis of Bioactive and Metabolically Stable Peptides” (J Med Chem, 2018) come the findings set out here.

In brackets after ≈: the same amount, converted by molar mass. Activity calls are given as the source filed them. No cut-off for these calls is given here. Non-standard residues stand in square brackets, D forms with d. Residues, ends and D or L forms follow the SMILES beside them. *: point of attachment. NH(2-(1-naphthyl)ethyl) = c1ccc2c(CCN*)cccc2c1; NMeF = CN[C@@H](Cc1ccccc1)C(=O)O; NMeL = CN[C@@H](CC(C)C)C(=O)O; NHPhenethyl = c1ccc(CCN*)cc1; NMeV = CN[C@H](C(=O)O)C(C)C; NMeC = CN[C@@H](CS)C(=O)O; NMeA = CN[C@@H](C)C(=O)O

Holding throughout (type): functional, organism-based
Experiment [1] deals with Plasmodium falciparum. Nature of the experiment: Antiprotozoal activity against IEF stage of Plasmodium falciparum NF54 after 48 hrs by [3H]-hypoxanthine incorporation assay.
For experiment [2], the system named is Trypanosoma brucei rhodesiense. Description: Antiprotozoal activity against trypomastigote stage of Trypanosoma brucei rhodesiense STIB900 after 72 hrs by Alamar Blue assay. Particulars: for IC50: STIB900, 72 h. For orientation: The colour change of resazurin is a common sign of viable cells or microbes.
Experiment [3] relates to Escherichia coli. Description: Antibacterial activity against Escherichia coli ATCC 25922 assessed as growth inhibition up to 128 ug/ml.
Experiment [4] has as its system Micrococcus luteus. Description: Antibacterial activity against Micrococcus luteus ATCC 9341 assessed as growth inhibition up to 128 ug/ml.
The test system of experiment [5] is Staphylococcus aureus. Description: Antibacterial activity against methicillin-resistant Staphylococcus aureus ATCC 43300 assessed as growth inhibition up to 128 ug/ml.
The subject of experiment [6] is Pseudomonas aeruginosa. Description: Antibacterial activity against Pseudomonas aeruginosa ATCC 27853 assessed as growth inhibition up to 128 ug/ml.
Experiment [7] concerns Enterococcus faecalis. Description: Antibacterial activity against Enterococcus faecalis ATCC 29212 assessed as growth inhibition up to 128 ug/ml.
Experiment [8] has as its system Staphylococcus aureus. Nature of the experiment: Antibacterial activity against Staphylococcus aureus ATCC 29213 assessed as growth inhibition up to 128 ug/ml.

`CN[C@@H](C)C(=O)N(C)[C@@H](CC(C)C)C(=O)N(C)[C@@H](CC(C)C)C(=O)N(C)[C@@H](CC(C)C)C(=O)NCCc1ccccc1` (H-[NMeA][NMeL][NMeL][NMeL]-NHPhenethyl) had an IC50 in experiment [1] of 1.85 µg/mL (≈ 3.15 µM).
The compound `CN[C@@H](CC(C)C)C(=O)N(C)[C@@H](CC(C)C)C(=O)N(C)[C@@H](CC(C)C)C(=O)N(C)[C@@H](CS)C(=O)NCCc1cccc2ccccc12` (H-[NMeL][NMeL][NMeL][NMeC]-{NH(2-(1-naphthyl)ethyl)}) had an IC50 in experiment [2] of 7.5 µg/mL (≈ 11.2 µM).
Regarding `CN[C@@H](CC(C)C)C(=O)N(C)[C@@H](CC(C)C)C(=O)N(C)[C@@H](CC(C)C)C(=O)N(C)[C@@H](CC(C)C)C(=O)NCCc1cccc2ccccc12` (H-[NMeL][NMeL][NMeL][NMeL]-{NH(2-(1-naphthyl)ethyl)}), the half-inhibitory concentration (IC50) in experiment [2] came to 1 µg/mL (≈ 1.47 µM).
As for `CN[C@@H](Cc1ccccc1)C(=O)N(C)[C@@H](Cc1ccccc1)C(=O)N(C)[C@@H](Cc1ccccc1)C(=O)N(C)[C@@H](Cc1ccccc1)C(=O)N(C)[C@@H](Cc1ccccc1)C(=O)N(C)[C@@H](Cc1ccccc1)C(=O)NCCc1ccccc1` (H-[NMeF][NMeF][NMeF][NMeF][NMeF][NMeF]-NHPhenethyl), the result in experiment [2] was Active.
Take `CN[C@@H](CC(C)C)C(=O)N(C)[C@@H](CC(C)C)C(=O)N(C)[C@@H](CC(C)C)C(=O)N(C)[C@@H](CC(C)C)C(=O)N(C)[C@@H](CC(C)C)C(=O)N(C)[C@@H](CC(C)C)C(=O)N(C)[C@@H](CC(C)C)C(=O)NCCc1ccccc1` (H-[NMeL][NMeL][NMeL][NMeL][NMeL][NMeL][NMeL]-NHPhenethyl): in experiment [2], the outcome was Active.
`CC(C)C[C@@H](N)C(=O)N[C@@H](CC(C)C)C(=O)N(C)[C@@H](CC(C)C)C(=O)N(C)[C@@H](CC(C)C)C(=O)NCCc1ccccc1`: the IC50 in experiment [2] is 1.4 to 2.1 µg/mL (≈ 2.33 to 3.49 µM).
`CN[C@H](C(=O)N(C)[C@H](C(=O)N(C)[C@H](C(=O)N(C)[C@H](C(=O)N(C)[C@H](C(=O)NCCc1ccccc1)C(C)C)C(C)C)C(C)C)C(C)C)C(C)C` (H-[NMeV][NMeV][NMeV][NMeV][NMeV]-NHPhenethyl): in experiment [2], the result was Active.
`CN[C@@H](CC(C)C)C(=O)N(C)[C@@H](CC(C)C)C(=O)N(C)[C@@H](CC(C)C)C(=O)N(C)[C@@H](CC(C)C)C(=O)N(C)[C@H](CC(C)C)C(=O)NCCc1ccccc1` displayed an IC50 in experiment [2] of 1.4 to 2.1 µg/mL (≈ 1.85 to 2.77 µM).
In the case of `CN[C@H](CC(C)C)C(=O)N(C)[C@H](CC(C)C)C(=O)N(C)[C@H](CC(C)C)C(=O)N(C)[C@H](CC(C)C)C(=O)NCCc1ccccc1`, the concentration for half-maximal inhibition (IC50) in experiment [2] fell in the range of 1.4 to 2.1 µg/mL (≈ 2.22 to 3.33 µM).
`CC(C)C[C@@H](N)C(=O)N[C@H](CC(C)C)C(=O)N[C@H](CC(C)C)C(=O)N[C@H](CC(C)C)C(=O)NCCc1ccccc1` returned an IC50 in experiment [2] of 1.4 to 2.1 µg/mL (≈ 2.44 to 3.66 µM).
`CN[C@@H](CC(C)C)C(=O)N(C)[C@@H](CC(C)C)C(=O)N(C)[C@@H](CC(C)C)C(=O)N(C)[C@@H](CS)C(=O)NCCc1ccccc1` (H-[NMeL][NMeL][NMeL][NMeC]-NHPhenethyl) registered an IC50 in experiment [2] of 5.6 µg/mL (≈ 9.03 µM).
As to `CN[C@@H](Cc1ccccc1)C(=O)N(C)[C@@H](Cc1ccccc1)C(=O)N(C)[C@@H](Cc1ccccc1)C(=O)N(C)[C@@H](Cc1ccccc1)C(=O)NCCc1ccccc1` (H-[NMeF][NMeF][NMeF][NMeF]-NHPhenethyl), the result in experiment [2] was Active.
`CCC(C)[C@H]1NC(=O)[C@@H](C(C)C)NC(=O)[C@H]([C@@H](C)O)NC(=O)[C@H](Cc2c[nH]c3ccccc23)NC(=O)[C@@H](NC(C)=O)[C@@H](C)OC(=O)[C@H](CC(C)C)NC1=O` (stereo not given in full) yielded an IC50 in experiment [2] of 31.6 µg/mL (≈ 41.9 µM).
The same measure, in the same setting: the value for `CN[C@H](CC(C)C)C(=O)N(C)[C@@H](CC(C)C)C(=O)N(C)[C@@H](CC(C)C)C(=O)N(C)[C@@H](CC(C)C)C(=O)NCCc1ccccc1` was 1.4 to 2.1 µg/mL (≈ 2.22 to 3.33 µM); that for `CN[C@@H](CC(C)C)C(=O)N(C)[C@H](CC(C)C)C(=O)N(C)[C@@H](CC(C)C)C(=O)N(C)[C@@H](CC(C)C)C(=O)NCCc1ccccc1` was 1.4 to 2.1 µg/mL (≈ 2.22 to 3.33 µM).
Regarding `CN[C@@H](CC(C)C)C(=O)N(C)[C@@H](CC(C)C)C(=O)N(C)[C@H](CC(C)C)C(=O)N(C)[C@@H](CC(C)C)C(=O)NCCc1ccccc1`, the IC50 in experiment [2] was 17.5 µg/mL (≈ 27.8 µM).
As for `CN[C@H](C(=O)N(C)[C@H](C(=O)N(C)[C@H](C(=O)N(C)[C@H](C(=O)N(C)[C@H](C(=O)N(C)[C@H](C(=O)NCCc1ccccc1)C(C)C)C(C)C)C(C)C)C(C)C)C(C)C)C(C)C` (H-[NMeV][NMeV][NMeV][NMeV][NMeV][NMeV]-NHPhenethyl), the “growth inhibition (GI)” value in experiment [3], in experiment [4], in experiment [5], in experiment [6], in experiment [7] and in experiment [8] was “inactive” each time. The outcome in experiment [2] was Active.
As for `CN[C@@H](CC(C)C)C(=O)N(C)[C@@H](CC(C)C)C(=O)N(C)[C@@H](CC(C)C)C(=O)N(C)[C@@H](CC(C)C)C(=O)N(C)[C@@H](CC(C)C)C(=O)NCCc1ccccc1`, the outcome in experiment [2] was Active.
`CN[C@@H](CC(C)C)C(=O)N(C)[C@@H](CC(C)C)C(=O)N(C)[C@@H](CC(C)C)C(=O)N(C)[C@@H](CC(C)C)C(=O)N(C)[C@@H](CC(C)C)C(=O)N(C)[C@@H](CC(C)C)C(=O)NCCc1ccccc1` (H-[NMeL][NMeL][NMeL][NMeL][NMeL][NMeL]-NHPhenethyl): the “growth inhibition (GI)” value in experiment [3], in experiment [4], in experiment [5], in experiment [6], in experiment [7] and in experiment [8] was “inactive” each time. Besides, the result in experiment [2] was Active.
For the compound `CN[C@H](C(=O)N(C)[C@H](C(=O)N(C)[C@H](C(=O)N(C)[C@@H](CS)C(=O)NCCc1ccccc1)C(C)C)C(C)C)C(C)C` (H-[NMeV][NMeV][NMeV][NMeC]-NHPhenethyl), the midpoint of inhibition in experiment [2], the IC50, lay at 3 µg/mL (≈ 5.19 µM).
Turning to `CN[C@H](C(=O)N(C)[C@H](C(=O)N(C)[C@H](C(=O)N(C)[C@H](C(=O)N(C)[C@H](C(=O)N(C)[C@H](C(=O)N(C)[C@H](C(=O)NCCc1ccccc1)C(C)C)C(C)C)C(C)C)C(C)C)C(C)C)C(C)C)C(C)C` (H-[NMeV][NMeV][NMeV][NMeV][NMeV][NMeV][NMeV]-NHPhenethyl), the outcome in experiment [2] was Active.
As to `CN[C@H](C(=O)N(C)[C@H](C(=O)N(C)[C@H](C(=O)N(C)[C@H](C(=O)N(C)[C@H](C(=O)N(C)[C@@H](Cc1ccccc1)C(=O)NCCc1ccccc1)C(C)C)C(C)C)C(C)C)C(C)C)C(C)C` (H-[NMeV][NMeV][NMeV][NMeV][NMeV][NMeF]-NHPhenethyl), the “growth inhibition (GI)” value in experiment [3], in experiment [4], in experiment [5], in experiment [6], in experiment [7] and in experiment [8] was “inactive” each time.
Regarding `CN[C@H](C(=O)N(C)[C@H](C(=O)N(C)[C@H](C(=O)N(C)[C@H](C(=O)N(C)[C@H](C(=O)N(C)[C@@H](CC(C)C)C(=O)NCCc1ccccc1)C(C)C)C(C)C)C(C)C)C(C)C)C(C)C` (H-[NMeV][NMeV][NMeV][NMeV][NMeV][NMeL]-NHPhenethyl), the “growth inhibition (GI)” value in experiment [3], in experiment [4], in experiment [5], in experiment [6], in experiment [7] and in experiment [8] was “inactive” each time.

A word on the IC50: it is the midpoint of a concentration-inhibition curve.
